From BindingDB's records for patent US20250019387 (Frontier Medicines, 2025) come the findings set out here.

Some results are limits rather than exact numbers.

What is called IC50 is the point on the concentration scale where inhibition reaches its midpoint. A high value points to weaker potency.

The experiment has as its target GTPase KRas [G12C,C51S,C80L,C118S]/RAF proto-oncogene serine/threonine-protein kinase (Homo sapiens, UniProt P01116, C118S/C51S/C80L/G12C). Nature of the experiment: Inhibition of KRASG12C and cRAF Binding. As for the experimental part: Compounds were diluted in 100% DMSO and each compound concentration was spotted at 200 nl/well onto low volume, white 384 well plates. […] Plates were incubated for 19-20 hours. A mixture of RBD and the AlphaScreen streptavidin donor and glutathione acceptor beads diluted in 25 mM Hepes, pH 7.4, 150 mM NaCl, 5 mM MgCl2, 0.01% TritonX-100 and 2% DMSO was then added at 10 ul/well and incubated for 60-90 minutes before the samples were read for emission at 570 nm after excitation of the donor beads at 680 nm. All incubations were performed at room temperature. […] IC50s were determined using nonlinear regression fit of [inhibitor]vs. response (4 parameters).

GTPase KRas [G12C,C51S,C80L,C118S]/RAF proto-oncogene serine/threonine-protein kinase, sequence (P01116 1-169 G12C/C51S/C80L/C118S): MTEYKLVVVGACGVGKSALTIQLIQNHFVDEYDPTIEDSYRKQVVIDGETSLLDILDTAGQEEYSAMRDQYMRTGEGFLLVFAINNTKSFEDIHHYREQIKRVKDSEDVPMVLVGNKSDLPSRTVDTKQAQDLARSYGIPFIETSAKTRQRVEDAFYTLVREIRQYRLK

Take `C=CC(=O)[C@]12CCN(c3nc(OC[C@@H]4CCCN4C)nc4c3CCN(c3cccc5cccc(Cl)c35)C4)C[C@H]1C2` [US20250019387, Example 44]: the IC50 was less than 0.01 µM.
